Experimental data from PubChem BioAssay (NCI).
Where “and” joins values, the source holds several entries; their conditions need not be identical. Equal entries are not always repeated.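 A five-concentration, 48-hour dose response in 96-well plates underlies each endpoint, interpolated linearly between surrounding concentrations. GI50 marks 50% less growth. TGI: concentration producing complete growth inhibition.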

Legend:
Experiment in all cases: DTP human tumour cell line panel, 48 h
TK-10 renal = system: TK-10 renal
SW-620 colon = system: SW-620 colon
HCT-116 colon = system: HCT-116 colon
ACHN renal = system: ACHN renal
KM12 colon = system: KM12 colon
OVCAR-5 ovarian = system: OVCAR-5 ovarian
NCI-H226 lung = system: NCI-H226 lung
NCI-H23 lung = system: NCI-H23 lung
SK-MEL-28 melanoma = system: SK-MEL-28 melanoma
K-562 leukemia = system: K-562 leukemia

| SMILES | GI50 (TK-10 renal) [µM] | TGI (TK-10 renal) [µM] | GI50 (SW-620 colon) [µM] | TGI (SW-620 colon) [µM] | GI50 (HCT-116 colon) [µM] | TGI (HCT-116 colon) | GI50 (ACHN renal) [µM] | TGI (ACHN renal) | GI50 (KM12 colon) [µM] | TGI (KM12 colon) [µM] | GI50 (OVCAR-5 ovarian) [µM] | TGI (OVCAR-5 ovarian) [µM] | GI50 (NCI-H226 lung) [µM] | TGI (NCI-H226 lung) | GI50 (NCI-H23 lung) [µM] | TGI (NCI-H23 lung) | GI50 (SK-MEL-28 melanoma) [µM] | TGI (SK-MEL-28 melanoma) | GI50 (K-562 leukemia) [µM] | TGI (K-562 leukemia) [µM] |
| --- | --- | --- | --- | --- | --- | --- | --- | --- | --- | --- | --- | --- | --- | --- | --- | --- | --- | --- | --- | --- |
| O=C(NCCCc1cn[nH]c1)c1ccc(-c2ccncc2)c(C#Cc2ccc(F)cc2)c1 | 12.8 | > 100 | < 0.01 | > 100 | < 0.01 | 15.2 µM | 6.91 | > 100 µM | < 0.0155 | > 83.2 | 0.122 | > 100 | 6.2 | 51.3 µM | 14.5 | > 100 µM | 14.4 | > 100 µM | < 0.01 | > 100 |
| COC(=O)Nc1nc2ccccc2[nH]1 | – | > 100 | – | > 100 | – | > 100 µM | – | > 100 µM | – | > 100 | – | > 100 | – | > 100 µM | – | > 56.2 µM | – | > 100 µM | – | > 100 |
| O=C(NNc1ccc(Cl)cc1)C1CCC(CNS(=O)(=O)c2ccccc2Cl)CC1 (stereo not given) | 0.453 | 6.68 | 40.6 | > 100 | – | – | 16.8 | 66.1 µM | 4.37 | 99.4 | 17.3 | 55 | 20.2 | > 100 µM | 15 | 50.6 µM | – | – | 1.96 | 5.73 |
| O=C(O)CCNS(=O)(=O)c1ccc2ccccc2c1 | – | > 100 | – | > 100 | – | – | – | > 100 µM | – | > 100 | – | > 100 | – | > 100 µM | – | > 100 µM | – | > 100 µM | – | > 100 |
| N#CC1=C(N)Oc2c(ccc3ccccc23)C1c1cc(=O)oc2ccc(Cl)cc12 (stereo not given) | 16.9 | 73.1 | 0.411 | > 100 | 0.406 | 23.8 µM | 1.99 | 73.4 µM | 0.453 | 31.4 | 4.1 | > 100 | 26 | 81.6 µM | 4.96 | > 100 µM | 10.6 | 74.9 µM | 0.375 | > 100 |
| COc1ccc(C(=O)c2cc(C)c(OC)c(C)c2)c(OC)c1NC(C)=O | > 100 | > 100 | 0.19 | > 100 | 0.439 | > 100 µM | 0.0944 | > 100 µM | 0.153 | > 100 | 0.191 | > 100 | 0.102 | 1.58 µM | 0.369 | > 100 µM | 0.504 | > 100 µM | 0.937 | > 100 |
| Cc1ccc(NC(=O)C(=O)CC(=O)c2c(C)n([O-])c3ccccc3[n+]2=O)cc1C | – | > 100 | – | > 100 | – | > 100 µM | – | > 100 µM | – | > 100 | – | > 100 | – | > 100 µM | – | > 100 µM | – | > 100 µM | – | > 100 |
| CS(=O)(=O)c1ccc(Nc2nc(N[C@H]3CCCC[C@H]3N)nc3cc[nH]c(=O)c23)cc1 | 3.19 | 18.7 | 0.627 | 8.6 | 0.615 | 16.8 µM | 5.24 | 90.1 µM | 0.491 | 11.9 | 2.52 | > 100 | 2.67 | 19 µM | 1.58 | 6.01 µM | 1.93 | 5.38 µM | 1.14 | > 100 |
| O=C(C(=O)n1ncc(Cl)c(Cl)c1=O)n1ncc(Cl)c(Cl)c1=O | – | 70.1 | – | 42.7 | – | 29.5 µM | – | 32.9 µM | – | > 100 | – | > 100 | – | > 100 µM | – | 41.5 µM | – | 59.3 µM | – | > 100 |
| Cc1ccc(N=C[N-]c2ccc(C)cc2)cc1.Cc1ccc(N=C[N-]c2ccc(C)cc2)cc1.O=C([O-])C(F)(F)F.O=C([O-])C(F)(F)F.[OH3+].[OH3+].[Rh+2].[Rh+2] | 50.2 | > 100 | 31.9 | > 100 | 16.7 | 35.4 µM | 44.7 | > 100 µM | 35 | > 100 | > 100 | > 100 | 89.6 | > 100 µM | 25.9 | 70.3 µM | 14.1 | 39.2 µM | 25.4 | 67.1 |
| CN=C1C=CC(=C(c2ccc(N(C)C)cc2)c2ccc(N(C)C)cc2)C=C1 | 0.218 | 1.14 | 0.185 | 1.35 | 0.116 | 1.09 µM | 0.326 | 1.33 µM | 0.165 | 0.673 | 0.312 | 3.43 | – | – | 0.224 | 1.02 µM | 0.482 | 2.07 µM | 0.0784 | 1.1 |
| CCN(CC)CCCC(C)Nc1cc(-c2cccc(OC(F)(F)F)c2)nc2ccc(N3CCCC3)cc12 (stereo not given) | 8.82 | > 93.1 | 0.0433 | > 100 | 0.0371 | 13.7 µM | 0.0744 | 39 µM | 0.0437 | 11.4 | 0.348 | > 100 | 0.189 | 9.57 µM | 0.161 | > 64 µM | 5.85 | 58.4 µM | 0.0391 | > 100 |
| Cc1cc(-c2c(F)cc3c4nn([C@H]5CC[C@@H](N(C)C)CC5)c(=O)c-4cn(C4CC4)c3c2F)cc(C)n1 | – | – | – | 1.36 | 0.0391 | 0.356 µM and 1.27 µM | 0.0219 | 0.171 µM and 0.928 µM | – | 1.11 | – | 14.2 | 0.0368 | 0.118 µM and 0.586 µM | 0.0207 | 0.079 µM and 0.554 µM | 0.0689 | 0.368 µM and 3.34 µM | 0.164 | – |
| [N-]=[N+]=NCCCn1c2c(c3ccc([N+](=O)[O-])cc3c1=O)C(=O)c1cc(Br)ccc1-2 | > 100 | > 100 | – | – | 3.01 | > 100 µM | > 100 | > 100 µM | > 100 | > 100 | > 100 | > 100 | > 100 | > 100 µM | > 100 | > 100 µM | > 100 | > 100 µM | > 100 | > 100 |
